Laboratory results reported in patent US10829520B2, “Beta-hairpin peptidomimetics” (POLYPHOR AG, priority 2015, dated 2020).
Like-named read-outs stand apart in the source and are kept apart here. Where a SMILES comes first, the peptide text is derived from it. Bridges are numbered along the chain shown (N, C = ends). Roman numbers before positions name the chains, in order. [ ]: non-standard residue; d: D form. Tle = CC(C)(C)[C@H](N)C(=O)O; dDab = NCC[C@@H](N)C(=O)O; Nle = CCCC[C@H](N)C(=O)O; Orn = NCCC[C@H](N)C(=O)O; Dab = NCC[C@H](N)C(=O)O; Dap = NC[C@H](N)C(=O)O; Sar = CNCC(=O)O

Experiments:
Assay type in all cases: cell-based
[1] = test system: Acinetobacter baumannii 872842
[2] = test system: Acinetobacter baumannii DSM 30008
Outline: (§1)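 Using the CLSI reference method, each strain at approx. 10^6 CFU/mL was exposed to serially diluted peptide in MH-II broth with 0.002% P-80. After 18-20 h at 35° C, the lowest concentration showing no visible growth gave the MIC.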

[3] = test system: Escherichia coli ATCC 25922
Outline: as §1

Escherichia coli 926415 = test system: Escherichia coli 926415
[4] = test system: Klebsiella pneumoniae SSI #3010
Outline: as §1

[5] = test system: Pseudomonas aeruginosa ATCC 27853
Outline: as §1

[6] = test system: Klebsiella pneumoniae 968733
[7] = test system: human red blood cells (hRBC); test: Hemolysis of human red blood cells
Outline: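 Washed fresh human erythrocytes (20% v/v, ~0.9×10^9 cells/mL final) were incubated with peptides at 100 μg/mL for 1 h at 37 °C with shaking. Supernatant OD540 measured; hemolysis expressed as % of 2.5% Triton X-100 lysis, with PBS/0.001% acetic acid as 0%.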

[8] = clinical isolate, Mueller-Hinton II broth, P-80 0.002% present
[9] = red cells of human, 1 h, 100 μg/mL

Escherichia coli ATCC 25922 MIC ([3]; ATCC 25922) | SMILES | Acinetobacter baumannii 872842 MIC [1]; 872842 | Acinetobacter baumannii DSM 30008 MIC ([2]; DSM 30008) | Escherichia coli 926415 MIC (Escherichia coli 926415; 926415) | Klebsiella pneumoniae SSI #3010 MIC ([4]; SSI #3010) | Pseudomonas aeruginosa ATCC 27853 MIC ([5]; ATCC 27853) | Klebsiella pneumoniae 968733 MIC [6]; 968733 | Hemolysis at 100 μg/mL ([7]; red cells of human, 1 h, 100) | Acinetobacter baumannii 872842 MIC [1, 8] | Acinetobacter baumannii DSM 30008 MIC ([2]; Mueller-Hinton II broth) | Escherichia coli ATCC 25922 MIC ([3]; Mueller-Hinton II broth) | Escherichia coli 926415 MIC (Escherichia coli 926415; [8]) | Klebsiella pneumoniae SSI #3010 MIC ([4]; Mueller-Hinton II broth) | Pseudomonas aeruginosa ATCC 27853 MIC ([5]; Mueller-Hinton II broth) | Klebsiella pneumoniae 968733 MIC [6, 8] | Hemolysis at 100 μg/mL ([7]; 100 μg/mL, 20% hRBC, 1 h at 37° C.) | Hemolysis at 100 μg/mL [7, 9]
0.25 mg/L | CC(C)C[C@@H]1NC(=O)[C@@H](Cc2ccccc2)NC(=O)[C@H](CCN)NC(=O)[C@@H](NC(=O)[C@H](CCN)NC(=O)[C@@H](NC(=O)[C@H](CCN)NC(=O)[C@H]2CC(=O)N[C@@H](CCN)C(=O)N[C@@H](Cc3c[nH]c4ccccc34)C(=O)N[C@@H](CCN)C(=O)N[C@@H](C(C)(C)C)C(=O)N[C@@H](C)C(=O)N[C@@H](CO)C(=O)N3CCC[C@@H]3C(=O)N3CCC[C@H]3C(=O)N[C@@H](C(C)C)C(=O)N[C@@H](CO)C(=O)N[C@@H](Cc3ccc(O)cc3)C(=O)N[C@@H](CCN)C(=O)N[C@@H](CCCN)C(=O)N2)[C@@H](C)O)CCNC(=O)[C@H]([C@@H](C)O)NC(=O)[C@H](CCN)NC(=O)[C@H](CCN)NC1=O [Ex. 8] ([Dab]W[Dab][Tle]AS[dP]PVSY[Dab][Orn][dD][Dab]T[Dab][Dab][Dab][dF]L[Dab][Dab]T; lactam 18-C, N-14) | 0.5 mg/L | 0.5 mg/L | 1 mg/L | 0.25 mg/L | 0.25 mg/L | 2 mg/L | 1% | – | – | – | – | – | – | – | – | –
– | CC(C)C[C@@H]1NC(=O)[C@@H](CC(C)C)NC(=O)[C@H](CCN)NC(=O)[C@@H](NC(=O)[C@H](CCN)NC(=O)CN(C)C(=O)[C@@H]2CSSC[C@H](N)C(=O)N[C@@H](Cc3c[nH]c4ccccc34)C(=O)N[C@@H](CCN)C(=O)N[C@@H](C(C)C)C(=O)N[C@H]3CSSC[C@H](NC(=O)[C@H](CC(C)C)NC(=O)[C@@H]4CCCN4C(=O)[C@H]4CCCN4C(=O)[C@H](CO)NC3=O)C(=O)N[C@@H](Cc3ccc(O)cc3)C(=O)N[C@@H](CCN)C(=O)N[C@@H](CCCN)C(=O)N2)CCNC(=O)[C@H]([C@@H](C)O)NC(=O)[C@H](CCN)NC(=O)[C@H](CCN)NC1=O [Ex. 212] (H-CW[Dab]VCS[dP]PLCY[Dab][Orn]C[Sar][Dab][Dab][Dab][dL]L[Dab][Dab]T; disulfide 1-14, 5-10; lactam 17-C) | – | – | – | – | – | – | – | 1 mg/L | 1 mg/L | 0.5 mg/L | 1 mg/L | 2 mg/L | 0.5 mg/L | 4 mg/L | 1% | –
1 mg/L | CCCC[C@@H]1NC(=O)[C@@H]2CCCN2C(=O)[C@H]2CCCN2C(=O)[C@H](CO)NC(=O)[C@H](C)NC(=O)[C@H](C(C)(C)C)NC(=O)[C@H](CCN)NC(=O)[C@H](Cc2c[nH]c3ccccc23)NC(=O)[C@H](CCN)NC(=O)[C@@H](CCN)NC(=O)[C@H](CCC(=O)N[C@H](CCN)C(=O)N[C@H]2CCNC(=O)[C@H]([C@@H](C)O)NC(=O)[C@H](CCN)NC(=O)[C@H](CCN)NC(=O)[C@H](CC(C)C)NC(=O)[C@@H](Cc3ccccc3)NC(=O)[C@H](CCN)NC2=O)NC(=O)[C@H](CCN)NC(=O)[C@H](Cc2ccc(O)cc2)NC(=O)[C@H](CO)NC1=O [Ex. 65] (I: cyclo([Nle]SY[Dab]E[dDab][Dab]W[Dab][Tle]AS[dP]P) / II: [dDab][Dab][Dab][dF]L[Dab][Dab]T; amide I:5-II:N; lactam II:2-II:C) | 4 mg/L | 2 mg/L | 1 mg/L | 1 mg/L | 1 mg/L | 2 mg/L | <1% | – | – | – | – | – | – | – | – | –
0.0625 mg/L | CCCC[C@@H]1NC(=O)[C@@H]2CCCN2C(=O)[C@H]2CCCN2C(=O)[C@H](CO)NC(=O)[C@H](C)NC(=O)[C@H](C(C)(C)C)NC(=O)[C@H](CCN)NC(=O)[C@H](Cc2c[nH]c3ccccc23)NC(=O)[C@@H](N)CCC(=O)NCC[C@@H](C(=O)N[C@H](CCN)C(=O)N[C@H]2CCNC(=O)[C@H]([C@@H](C)O)NC(=O)[C@H](CCN)NC(=O)[C@H](CCN)NC(=O)[C@H](CC(C)C)NC(=O)[C@@H](Cc3ccccc3)NC(=O)[C@H](CCN)NC2=O)NC(=O)[C@H](CCCN)NC(=O)[C@H](CCN)NC(=O)[C@H](Cc2ccc(O)cc2)NC(=O)[C@H](CO)NC1=O [Ex. 198] (H-EW[Dab][Tle]AS[dP]P[Nle]SY[Dab][Orn][Dab][dDab][Dab][Dab][dF]L[Dab][Dab]T; lactam 1-14, 16-C) | 1 mg/L | 0.25 mg/L | 0.5 mg/L | 0.125 mg/L | 0.5 mg/L | 1 mg/L | 1% | – | – | – | – | – | – | – | – | –
– | CCCC[C@@H]1NC(=O)[C@@H]2CCCN2C(=O)[C@H]2CCCN2C(=O)[C@H]([C@@H](C)O)NC(=O)[C@H](CN)NC(=O)[C@H](C(C)(C)C)NC(=O)[C@@H](NC(=O)[C@H](Cc2c[nH]c3ccccc23)NC(C)=O)CSSC[C@@H](C(=O)N[C@@H](CCN)C(=O)N[C@H](C(=O)N[C@@H](CCN)C(=O)N[C@H]2CCNC(=O)[C@H]([C@@H](C)O)NC(=O)[C@H](CCN)NC(=O)[C@H](CCN)NC(=O)[C@H](CC(C)C)NC(=O)[C@@H](Cc3ccccc3)NC(=O)[C@H](CCN)NC2=O)[C@@H](C)O)NC(=O)[C@H](Cc2ccc(O)cc2)NC(=O)CNC1=O [Ex. 19] (Ac-WC[Tle][Dap]T[dP]P[Nle]GYC[Dab]T[Dab][Dab][Dab][dF]L[Dab][Dab]T; disulfide 2-11; lactam 15-C) | 0.75 mg/L | 0.25 mg/L | 0.25 mg/L | 1 mg/L | 1 mg/L | 0.75 mg/L | – | – | – | – | – | – | – | – | – | <1%
– | CCCC[C@@H]1NC(=O)[C@@H]2CCCN2C(=O)[C@H]2CCCN2C(=O)[C@H]([C@@H](C)O)NC(=O)[C@H](CN)NC(=O)[C@H](C(C)(C)C)NC(=O)[C@@H](NC(=O)[C@H](Cc2c[nH]c3ccccc23)NC(C)=O)CSSC[C@@H](C(=O)N[C@@H](CCN)C(=O)N[C@H](C(=O)N[C@@H](CCN)C(=O)N[C@H]2CCNC(=O)[C@H]([C@@H](C)O)NC(=O)[C@H](CCN)NC(=O)[C@H](CCN)NC(=O)[C@H](CC(C)C)NC(=O)[C@@H](Cc3ccccc3)NC(=O)[C@H](CCN)NC2=O)[C@@H](C)O)NC(=O)[C@H](Cc2ccc(O)cc2)NC(=O)CNC1=O [Ex. 116] (Ac-WC[Tle][Dap]T[dP]P[Nle]GYC[Dab]T[Dab][Dab][Dab][dF]L[Dab][Dab]T; disulfide 2-11; lactam 15-C) | 0.125 mg/L | 0.25 mg/L | 0.0625 mg/L | 0.25 mg/L | 1 mg/L | 0.5 mg/L | – | – | – | – | – | – | – | – | – | <1%

SMILES | Escherichia coli ATCC 25922 MIC ([3]; ATCC 25922) | Acinetobacter baumannii 872842 MIC [1]; 872842 | Acinetobacter baumannii DSM 30008 MIC ([2]; DSM 30008) | Escherichia coli 926415 MIC (Escherichia coli 926415; 926415) | Klebsiella pneumoniae SSI #3010 MIC ([4]; SSI #3010) | Pseudomonas aeruginosa ATCC 27853 MIC ([5]; ATCC 27853) | Klebsiella pneumoniae 968733 MIC [6]; 968733 | Hemolysis at 100 μg/mL ([7]; red cells of human, 1 h, 100) | Acinetobacter baumannii 872842 MIC [1, 8] | Acinetobacter baumannii DSM 30008 MIC ([2]; Mueller-Hinton II broth) | Escherichia coli ATCC 25922 MIC ([3]; Mueller-Hinton II broth) | Escherichia coli 926415 MIC (Escherichia coli 926415; [8]) | Klebsiella pneumoniae SSI #3010 MIC ([4]; Mueller-Hinton II broth) | Pseudomonas aeruginosa ATCC 27853 MIC ([5]; Mueller-Hinton II broth) | Klebsiella pneumoniae 968733 MIC [6, 8] | Hemolysis at 100 μg/mL ([7]; 100 μg/mL, 20% hRBC, 1 h at 37° C.) | Hemolysis at 100 μg/mL [7, 9]
CCCC[C@@H]1NC(=O)[C@@H]2CCCN2C(=O)[C@H]2CCCN2C(=O)[C@H](CO)NC(=O)[C@H](C)NC(=O)[C@H](C(C)(C)C)NC(=O)[C@H](CCN)NC(=O)[C@H](Cc2c[nH]c3ccccc23)NC(=O)[C@@H](NC(C)=O)CSSC[C@@H](C(N)=O)NC(=O)[C@H](CCC(=O)N[C@H](CCN)C(=O)N[C@H]2CCNC(=O)[C@H]([C@@H](C)O)NC(=O)[C@H](CCN)NC(=O)[C@H](CCN)NC(=O)[C@H](CC(C)C)NC(=O)[C@@H](Cc3ccccc3)NC(=O)[C@H](CCN)NC2=O)NC(=O)[C@H](CCN)NC(=O)[C@H](Cc2ccc(O)cc2)NC(=O)[C@H](CO)NC1=O [Ex. 194] (I: Ac-CW[Dab][Tle]AS[dP]P[Nle]SY[Dab]EC-NH2 / II: [dDab][Dab][Dab][dF]L[Dab][Dab]T; disulfide I:1-I:14; amide I:13-II:N; lactam II:2-II:C) | 0.25 mg/L | 2 mg/L | 0.5 mg/L | 1 mg/L | 0.5 mg/L | 2 mg/L | 2 mg/L | – | – | – | – | – | – | – | – | – | <1%
CC(=O)N[C@@H](Cc1c[nH]c2ccccc12)C(=O)N[C@H]1CSSC[C@@H](C(=O)N[C@@H](CCCN)C(=O)N[C@H](C(=O)N[C@@H](CCN)C(=O)N[C@@H](CCN)C(=O)N[C@H]2CCNC(=O)[C@H]([C@@H](C)O)NC(=O)[C@H](CCN)NC(=O)[C@H](CCN)NC(=O)[C@H](CC(C)C)NC(=O)[C@@H](Cc3ccccc3)NC(=O)[C@H](CCN)NC2=O)[C@@H](C)O)NC(=O)[C@H](Cc2ccc(O)cc2)NC(=O)[C@H](CO)NC(=O)[C@H]([C@@H](C)O)NC(=O)[C@@H]2CCCN2C(=O)[C@H]2CCCN2C(=O)[C@H](Cc2ccc(O)cc2)NC(=O)[C@H](C)NC(=O)[C@H](C(C)(C)C)NC1=O [Ex. 144] (Ac-WC[Tle]AY[dP]PTSYC[Orn]T[Dab][Dab][Dab][Dab][dF]L[Dab][Dab]T; disulfide 2-11; lactam 16-C) | 0.25 mg/L | 0.25 mg/L | 0.125 mg/L | 0.5 mg/L | 0.25 mg/L | 0.25 mg/L | 1 mg/L | – | – | – | – | – | – | – | – | – | 4%
